Where two headings read alike, the source gives them in different places.
Key:
[1] = system: human VCaP prostate tumors; conditions: for TGI (%): day 58, vs. vehicle control; for TGI (%) / Tumor on day: p.o. Qd x 35; for ILS (%): increased life span, compared with group 1 (vehicle); for MLS: median lifespan, euthanized when tumor volume reached 1500 mm^3; for Tumor on day: tumor volume, Mean ± SEM, day 58, N=10/group
CYP1A2 = conditions: preclinical data; cited from earlier work
PARP-2 = PARP-2 (Homo sapiens, UniProt Q9UGN5); conditions: in words; cited from earlier work
[2] = system: cancer cell lines that have been silenced for BRCA-1 or BRCA-2 genes, or that have BRCA-1 and BRCA-2 mutations; conditions: due to cell cycle arrest, followed by apoptosis; cited from earlier work
neurological function = conditions: conscious mice; cited from earlier work
[3] = system: cytochrome P450 (CYP) enzymes; conditions: in words; cited from earlier work
[4] = cited from earlier work
PARP-1 = PARP-1 (Homo sapiens, UniProt P09874); conditions: in words; cited from earlier work
[5] = system: BRCA-1-deficient breast, BRCA-2-deficient pancreatic and ovarian cancers; conditions: mice; cited from earlier work
[6] = anesthetized dogs; cited from earlier work
P-glycoprotein = P-glycoprotein (Homo sapiens, UniProt P08183); conditions: cited from earlier work
androgens = conditions: cited from earlier work
mCRPC = conditions: cited from earlier work
[7] = added to castration, relative to castration alone

P-glycoprotein, sequence (P08183 whole entry): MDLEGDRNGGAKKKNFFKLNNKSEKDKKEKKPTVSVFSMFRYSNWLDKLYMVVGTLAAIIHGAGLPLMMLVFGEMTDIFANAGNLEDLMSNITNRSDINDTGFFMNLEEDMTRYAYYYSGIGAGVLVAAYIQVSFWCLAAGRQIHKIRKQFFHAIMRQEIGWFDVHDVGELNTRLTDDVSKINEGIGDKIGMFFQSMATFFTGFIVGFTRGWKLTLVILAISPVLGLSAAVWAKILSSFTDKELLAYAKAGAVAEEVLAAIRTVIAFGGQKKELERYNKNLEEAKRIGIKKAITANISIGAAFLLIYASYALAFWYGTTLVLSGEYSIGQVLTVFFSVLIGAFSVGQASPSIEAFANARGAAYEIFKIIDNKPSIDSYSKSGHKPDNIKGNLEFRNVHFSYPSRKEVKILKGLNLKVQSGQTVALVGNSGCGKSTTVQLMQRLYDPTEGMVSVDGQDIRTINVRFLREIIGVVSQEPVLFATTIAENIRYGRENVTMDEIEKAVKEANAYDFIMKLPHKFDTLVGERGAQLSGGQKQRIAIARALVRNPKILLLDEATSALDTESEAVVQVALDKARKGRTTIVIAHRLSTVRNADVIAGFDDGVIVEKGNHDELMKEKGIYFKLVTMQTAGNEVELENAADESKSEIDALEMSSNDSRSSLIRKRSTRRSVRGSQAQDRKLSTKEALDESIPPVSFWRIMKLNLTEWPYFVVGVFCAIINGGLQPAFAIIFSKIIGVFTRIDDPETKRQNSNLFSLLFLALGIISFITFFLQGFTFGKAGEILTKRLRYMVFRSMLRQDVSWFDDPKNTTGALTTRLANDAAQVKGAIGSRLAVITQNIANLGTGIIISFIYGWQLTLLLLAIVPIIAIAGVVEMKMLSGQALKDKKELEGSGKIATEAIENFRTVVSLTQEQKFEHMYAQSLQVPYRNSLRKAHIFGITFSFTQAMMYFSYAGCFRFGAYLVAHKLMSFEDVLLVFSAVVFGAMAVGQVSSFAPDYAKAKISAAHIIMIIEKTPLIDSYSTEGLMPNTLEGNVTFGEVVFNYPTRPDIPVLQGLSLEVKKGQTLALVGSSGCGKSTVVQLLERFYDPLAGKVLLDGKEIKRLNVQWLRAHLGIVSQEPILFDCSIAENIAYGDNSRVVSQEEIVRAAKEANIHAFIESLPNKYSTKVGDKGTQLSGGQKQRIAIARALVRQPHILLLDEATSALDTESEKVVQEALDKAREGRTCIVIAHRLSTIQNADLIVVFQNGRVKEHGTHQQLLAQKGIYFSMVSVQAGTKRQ
PARP-2, sequence (Q9UGN5 whole entry, species assumed): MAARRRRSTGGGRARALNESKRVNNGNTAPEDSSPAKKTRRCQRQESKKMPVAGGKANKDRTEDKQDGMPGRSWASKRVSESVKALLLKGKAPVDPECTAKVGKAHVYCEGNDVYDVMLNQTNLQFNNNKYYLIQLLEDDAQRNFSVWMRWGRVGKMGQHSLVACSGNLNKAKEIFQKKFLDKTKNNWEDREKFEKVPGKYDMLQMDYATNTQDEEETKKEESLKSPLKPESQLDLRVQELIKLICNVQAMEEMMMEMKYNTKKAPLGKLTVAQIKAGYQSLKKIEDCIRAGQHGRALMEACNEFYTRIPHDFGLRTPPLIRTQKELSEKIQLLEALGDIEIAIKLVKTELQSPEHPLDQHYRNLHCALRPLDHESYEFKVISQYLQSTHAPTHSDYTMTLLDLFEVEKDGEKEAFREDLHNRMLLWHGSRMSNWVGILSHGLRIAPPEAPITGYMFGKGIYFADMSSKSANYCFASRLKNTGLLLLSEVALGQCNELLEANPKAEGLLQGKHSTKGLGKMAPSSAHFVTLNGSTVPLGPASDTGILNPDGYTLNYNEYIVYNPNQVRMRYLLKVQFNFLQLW
PARP-1, sequence (P09874 whole entry, species assumed): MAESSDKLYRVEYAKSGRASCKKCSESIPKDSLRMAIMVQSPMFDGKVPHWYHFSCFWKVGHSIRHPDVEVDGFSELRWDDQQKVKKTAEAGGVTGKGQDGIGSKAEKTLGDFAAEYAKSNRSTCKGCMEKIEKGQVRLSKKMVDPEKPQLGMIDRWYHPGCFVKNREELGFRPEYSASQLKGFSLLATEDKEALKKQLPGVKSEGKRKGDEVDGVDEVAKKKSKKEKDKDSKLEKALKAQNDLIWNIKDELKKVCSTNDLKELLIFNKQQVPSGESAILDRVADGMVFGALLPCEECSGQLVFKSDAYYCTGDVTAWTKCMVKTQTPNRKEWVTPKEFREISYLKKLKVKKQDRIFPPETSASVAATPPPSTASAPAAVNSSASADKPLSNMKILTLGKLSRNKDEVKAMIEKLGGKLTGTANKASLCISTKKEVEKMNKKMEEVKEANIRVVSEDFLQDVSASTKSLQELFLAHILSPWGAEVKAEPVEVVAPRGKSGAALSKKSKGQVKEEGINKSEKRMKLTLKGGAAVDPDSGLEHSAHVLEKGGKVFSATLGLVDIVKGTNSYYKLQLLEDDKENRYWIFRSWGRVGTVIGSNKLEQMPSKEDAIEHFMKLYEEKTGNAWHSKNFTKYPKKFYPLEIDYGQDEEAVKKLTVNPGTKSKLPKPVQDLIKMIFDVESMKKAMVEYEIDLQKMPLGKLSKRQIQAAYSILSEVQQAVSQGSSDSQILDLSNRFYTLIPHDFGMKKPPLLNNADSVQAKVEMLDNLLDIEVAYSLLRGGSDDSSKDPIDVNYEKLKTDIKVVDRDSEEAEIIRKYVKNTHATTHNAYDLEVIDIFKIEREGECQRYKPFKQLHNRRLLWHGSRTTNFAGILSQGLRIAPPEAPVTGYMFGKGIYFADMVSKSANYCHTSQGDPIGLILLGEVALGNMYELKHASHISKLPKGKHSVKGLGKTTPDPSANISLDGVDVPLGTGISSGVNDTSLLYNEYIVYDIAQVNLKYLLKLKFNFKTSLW

C[C@]12CC[C@H](O)CC1=CC[C@@H]1[C@@H]2CC[C@]2(C)C(c3cccnc3)=CC[C@@H]12 [Abiraterone]
TGI (%) [1]: 37.6% | inhibition of tumor growth ([1]; days 37-55, compared with vehicle control): 35%-46% | ILS (%) [1]: 13.1% | MLS [1]: 88 days | Tumor on day [1]: 523 ± 51 mm^3 | increase of MLS ([1]; vs the vehicle control group): 10.5 days

NC(=O)c1cccc2cn(-c3ccc([C@@H]4CCCNC4)cc3)nc12 [Niraparib, 2-[4-[(3S)-piperidin-3-yl]phenyl]indazole-7-carboxamide]
potential to induce CYP1A2 enzymes (CYP1A2): moderate potential | activity against PARP-2 (PARP-2): potent activity | anti-proliferative activity [2]: demonstrates anti-proliferative activity | effect on neurological function (neurological function): no effect | inhibition or induction of CYP enzymes [3]: not a potent inhibitor or inducer | metabolism ([4]; in vitro, multiple metabolic enzymes (both CYPs and non-CYPs)): limited metabolism | clearance ([4]; in words): low clearance drug | activity against PARP-1 (PARP-1): potent activity | antitumor activity [5]: has antitumor activity | QRS cardiac interval [6]: increased | QTc interval [6]: unaffected | heart rate [6]: increased | mean arterial pressure [6]: increased | P-glycoprotein substrate (P-glycoprotein): is a P-glycoprotein substrate | TGI (%) [1]: 20.8% | inhibition of tumor growth ([1]; days 41-55, compared with vehicle control): approximately 25% | MLS / survival benefit ([1]; in words, compared with the vehicle control group): did not increase MLS or provide a significant survival benefit | ILS (%) [1]: −0.6% | MLS [1]: 79 days | Tumor on day [1]: 664 ± 50 mm^3

CC(=O)O[C@H]1CC[C@@]2(C)C(=CC[C@@H]3[C@@H]2CC[C@]2(C)C(c4cccnc4)=CC[C@@H]32)C1 [abiraterone acetate, 3β-acetoxy-17-(3-pyridyl)androsta-5,16-diene]
reduction of levels of DHEA (androgens; [7]): 97-98% | reduction of levels of DHT (androgens; [7]): 85% | reduction of levels of androstenedione (androgens; [7]): 77-78% | circulating testosterone levels (androgens; after administration of abiraterone acetate, castration gives 20 ng/dL): less than 1 ng/dL

O=C(c1cc(Cc2n[nH]c(=O)c3ccccc23)ccc1F)N1CCN(C(=O)C2CC2)CC1 [olaparib]
responders that were biomarker-positive for anomalies in DNA-repair genes (mCRPC; 14 of the 16 responding patients): 88% | patients with a response (mCRPC; all patients, sixteen of 49, 95% CI 20%, 48%): 33% | Overall survival (OS), median (mCRPC; biomarker-negative group): 7.5 months | Radiographic progression-free survival (rPFS), median (mCRPC; biomarker-negative group): 2.7 months | patients with a response (mCRPC; biomarker-negative, 2 of 33): 6% | Overall survival (OS), median (mCRPC; biomarker-positive group): 13.8 months | Radiographic progression-free survival (rPFS), median (mCRPC; biomarker-positive group): 9.8 months | patients with a response (mCRPC; patients with ATM aberrations): 4 of 5 | patients with a response (mCRPC; patients with BRCA-2 loss): all 7
